# Measurements published in patent publication US6613317B1, “Volatile attractants for diabrotica species” (priority 1988, dated 2003).
# Marks after values point to notes of the source that are not given here.
# Key:
# D. barberi = experiment: Sticky trap attraction in prairie habitat, Trelease Woods (Example 2); type: in vivo, Diabrotica barberi; settings: August 14, 1987; 100 mg per trap; n = 4
# Procedure: (§1) The candidate lures in all experiments were purchased commercially and exceeded 98% purity. The test chemicals were applied by capillary micropipettes to cotton dental wicks which were attached to the tops of 1.0 liter cylindrical paper cartons covered with TangleTrap™ (Tanglefoot Co., Grand Rapids, Mich.). The sticky trap techniques used were as described in Example 1. Cinnamyl alcohol and para-methoxycinnamaldehyde, which are solids, were dissolved in glass-distilled acetone prior to dosing the cotton wicks. […]. Control traps had untreated cotton wicks. Four replicates of treated and untreated traps were randomly positioned 10 meters apart on top of 1 m high posts along the border of a eight foot wide strip cut through the middle of a 4.05 ha relict prairie at Trelease Woods (ca. two miles northeast of Urbana, Ill.). The field consisted primarily of Andropogon gerardii Vitman (big bluestem) and a variety of composites. The tests were conducted in mid-August of two years and were timed to coincide with the presence of D. cristata and D. barberi adults in the flower heads of Canada thistle (Carduus arvensis Robson). In the second year, several new attractants of D. v. virgifera and D. barberi were tested in Trelease Woods and along the edge of a 0.8 ha field of hybrid corn located at the Pomology South Farms, Urbana, Ill. Attraction of Diabrotica species to the various lures was measured by the mean number of beetles caught after 24-h. On one date in late August of the first year, D. cristata and D. barberi were removed from the traps and sexed in the laboratory. The significance of treatments in all tests was determined by an analysis of variance and the individual means were separated by Duncan's multiple range test (Statistical Package for Social Science, Nie, et al., SPSS: statistical package for the social sciences, 2nd ed. McGraw-Hill, New York (1975). Data were logarithmically transformed for statistical analysis and the means and standard deviations are presented for the untransformed data.
# D. cristata = experiment: as above; type: in vivo, Diabrotica cristata; settings: August 14, 1987; 100 mg per trap; n = 4
# Procedure: as §1
# D. v. virgifera = experiment: as above; type: in vivo, Diabrotica virgifera virgifera; settings: August 14, 1987; 100 mg per trap; n = 4
# Procedure: as §1
# D. u. howardi = experiment: as above; type: in vivo, Diabrotica undecimpunctata howardi; settings: August 14, 1987; 100 mg per trap; n = 4
# Procedure: as §1
# NCR = experiment: Limit of response rating of squash blossom volatiles on sticky traps (Example 5); type: in vivo, Diabrotica barberi; settings: 24 hour; four replicate traps; 0.01 mg to 200 mg
# Procedure: (§2) Over 40 individual volatile chemicals have been isolated from Cucurbita maxima blossoms and circa 25 of these have been unequivocally identified (Andersen, J. F., J. Agric. Food Chem., 35:60-62 (1987): Andersen, J. F. and Metcalf, R. L., J. Chem. Ecol., 12:687-699 (1986)). The major odor components were evaluated as potential attractants for adult Diabrotica species using cylindrical sticky traps baited with dental cotton wicks (Metcalf, R. L., and Lampman, R. L., Paper submitted to J. Econ. Entomol., (1988)) containing from 0.01 mg to 200 mg of volatile compound.
# SCR = experiment: as above; type: in vivo, Diabrotica undecimpunctata howardi; settings: 24 hour; four replicate traps; 0.01 mg to 200 mg
# Procedure: as §2
# WCR = experiment: as above; type: in vivo, Diabrotica virgifera virgifera; settings: 24 hour; four replicate traps; 0.01 mg to 200 mg
# Procedure: as §2
# [1] = tested on: western corn rootworm (WCR) adults; experiment: Sticky trap attraction in corn, estragole analogues (Example 3); type: in vivo, Diabrotica virgifera virgifera; settings: 100 mg per trap, n = 4; for Mean number of WCR per sticky trap after 24 hours: August 5 (Table 10)
# Procedure: (§3) Test chemicals were applied by capillary micropipettes to cotton dental wicks that were attached to tops of 1.0 liter cylindrical paper cartons covered with TangleTrap™, Grand Rapids, Mich. The trapping techniques used were as previously described in Example 1. Cinnamyl alcohol, 4-methoxycinnamaldehyde, cinnamyl acetate, and 4-(4′methoxyphenyl)-3-butene-2-one which are solids at ambient temperature were prepared as standard w/v solutions in acetone prior to dosing the cotton wicks. All treatments were made at a dosage of 100 mg or 100 μL of attractant per trap. Control traps had untreated wicks. Four replicates of treated and untreated traps were positioned randomly 10 meters apart on top of 1 m high posts along the edges of 25-50 ha. fields of hybrid corn (Zea mays), infested with adult NCR, SCR, and WCR beetles. Several experiments detailed in the Tables were made in a 0.4 ha plot of sweet corn (Illini X-tra Sweet).
# (§4) Attraction of Diabrotica species adults of the sticky traps was measured by the mean number of beetles caught after 1 day (ca. 24 hours) exposure. The significance of the treatments was determined by analysis of variance and the individual means were separated by Duncan's multiple range test (Statistical Package for the Social Sciences, Nie, et al., 2nd. ed. McGraw-Hill, New York (1975). The data was logarithmically transformed for statistical analysis. Means and standard deviations are presented for the untransformed data. Significance levels were set at P=0.05 for all statistical analyses.
# [2] = tested on: southern corn rootworm (SCR) adults; experiment: as above; type: in vivo, Diabrotica undecimpunctata howardi; settings: 100 mg per trap, n = 4; for Mean number of SCR per sticky trap after 24 hours: August 5 (Table 10)
# Procedure: as §3, §4
# [3] = tested on: northern corn rootworm (NCR) adults; experiment: as above; type: in vivo, Diabrotica barberi; settings: August 5 (Table 10); 100 mg per trap; n = 4
# Procedure: as §3, §4
# [4] = tested on: southern corn rootworm (SCR) adults; experiment: Sticky trap attraction in sweet corn plots (Example 1); type: in vivo, Diabrotica undecimpunctata howardi; settings: for Mean number of SCR per trap (±standard deviation): n = 4
# Procedure: (§5) The attraction of Diabrotica species to single-component and multicomponent lures was evaluated in corn fields. The field experiments on attraction of SCR and WCR adults were conducted in 0.405-ha (1-acre) plots of “Illini Xtra Sweet” corn grown on the University of Illinois South Farms at Urbana, Ill., over a two year period. Most of the tests were conducted in August to correspond with the peak silk-feeding and oviposition periods of corn rootworm adults in central Illinois. In both years, the sweet corn plot was adjacent to a 0.405-ha trap crop of C. maxima cultivar “Blue Hubbard”, to provide high densitites of SCR and WCR adults in the corn plots (Howe, et al., Environ. Entomol., 5:745-751 (1976), Lampman, et al., J. Chem. Ecol., 13:959-975 (1987).
# (§6) Attraction of Diabrotica species to volatile compounds was measured by the average number of beetles cought during a 24-h period on 1.0-liter cylindrical paper cartons (15.2 cm high, 27.9 cm circumference) which were evenly coated with clear insect adhesive, TangleTrap™ (Tanglefood Co., Grand Rapids, Mich.) The candidate attractants were applied by capillary micropiettes to cotton dental wicks (13 mm long by 6 mm diameter) that were previously impregnated with mineral oil to prolong volatilization. The chemicals were purchased from Aldrich Chemical Co., (Milwaukee, Wis.) and assayed by gas chromatography as >97% pure. Indole, a solid at ambient temperatures (m.p. 52-54° C.), was dissolved in glass-distilled acetone before dosing the cotton wicks. For dosage-acticity tests, the various components were mixed in equal quantities by weight and diluted to the appropriate dosage with acetone. Treated and untreated (control) wicks were attached to the top of the paper cartons with TangleTrap™ and the inverted traps were placed on 1-m-high posts between the sweet corn rows. Four replicates of each treatment and a control were conducted in a randomized complete block desgin. The sticky traps within a block (ca. 50-m row of corn) were 5-10 m apart (depending on the number of treatments in a particular test) and the blocks were 3 m apart. The traps were baited and placed in the field between 1000 and 1300 hours and beetle counts were taken after 24 h. The significance of treatments was determined by analysis of variance and the individual means were separated by Duncan's multiple range test (Statistical Package for Social Sciences (SPSS) (Nie, et al., SPSS: statistical package for the social sciences, 2nd ed. McGraw-Hill, N.Y. (1975)). Student's t test was used for comparisons of two means (Sokal, et al., Biometry, Freeman, San Francisco (1969). Significance levels were set at P=0.05 at all statistical analyses.
# (§7) The initial field test in August of the first year evaluated the response of SCR and WCR adults of a mixture of veratrole (V), indole (I), phenylacetaldehyde (P), trans-anethole (A), and eugenol (E) (=VIPAE mixture), as well as to the individual components. Each component in the VIPAE mixture was present at a dosage of 20 mg per trap and was compared with the individual components at 100 mg per trap. The response of SCR and WCR adults to a range of VIPAE doses, 1-300 mg, was conducted on the following day. Fifty SCR adults were removed from each 100-mg VIPAE trap, and returned to the laboratory for sex determination. Additional analyses in August evaluated the reduction in trap catches produced by the sequential removal of the individual components from the VIPAE lure. After the primary components of the initial lure were determined, a modified multicomponent lure consisting of veratrole, indole, and phenylacetaldehyde (=VIP mixture) was compared with its individual components to determine whether the attraction of SCR adults was the result of interactive or additive factors. The attraction and synergistic response of SCR adults of the VIP mixture was verified by tests conducted in August of the following year. […]
# [5] = tested on: western corn rootworm (WCR) adults; experiment: as above; type: in vivo, Diabrotica virgifera virgifera; settings: for Mean number of WCR per trap (±standard deviation): n = 4
# Procedure: as §5, §6, §7
# [6] = August 4, second year, each compound 20 mg per trap
# [7] = August 7, second year, each compound 20 mg per trap
# [8] = August first year, South Farms, 24 h, single compounds 100 mg per trap, mixture 20 mg of each component
# [9] = August first year, single compounds 100 mg per trap, mixture 20 mg each component
smiles,measurement,setting,value
CC(=O)/C=C/C1C(C)=CCCC1(C)C (stereo not drawn) [α-ionone],Mean number of D. barberi per day (±standard deviation),D. barberi,0.3 ± 0.5^a per day
same,Mean number of D. cristata per day (±standard deviation),D. cristata,2.8 ± 2.1^a per day
same,Mean number of D. v. virgifera per day (±standard deviation),D. v. virgifera,0.0^a per day
same,Mean number of D. u. howardi per day (±standard deviation),D. u. howardi,0.0^a per day
same,Attractant Rating NCR (by limit of response),NCR,0 (200)
same,Attractant Rating SCR (by limit of response),SCR,0 (200)
same,Attractant Rating WCR (by limit of response),WCR,0 (200)
"COC(=O)C=Cc1ccccc1 [XV, cinnamic acid methyl ester]",Mean number of WCR per sticky trap after 24 hours,[1],9.5 ± 4.5^a per sticky trap
same,Mean number of WCR adults per sticky trap (±standard deviation) after 24 hours,[1]; September 11,1.7 ± 1.7^a per sticky trap
same,Mean number of SCR per sticky trap after 24 hours,[2],2.0 ± 0.8^a per sticky trap
same,Mean number of SCR adults per sticky trap (±standard deviation) after 24 hours,[2]; September 11,3.2 ± 1.7^ab per sticky trap
same,Mean number of NCR per sticky trap after 24 hours,[3],0.5 ± 0.6^a per sticky trap
"O=C(O)CCc1ccccc1 [XXII, dihydrocinnamic acid]",Mean number of WCR per sticky trap after 24 hours,[1],12.0 ± 3.6^a per sticky trap
same,Mean number of SCR per sticky trap after 24 hours,[2],33.7 ± 8.7^bc per sticky trap
same,Mean number of NCR per sticky trap after 24 hours,[3],4.0 ± 1.4^b per sticky trap
"N#CC=Cc1ccccc1 [X, cinnamonitrile]",Mean number of WCR adults per sticky trap (±standard deviation) after 24 hours,[1]; August 4 second year,32.7 ± 11.4^bc per sticky trap
same,Mean number of WCR per sticky trap after 24 hours,[1],37.8 ± 7.8^cd per sticky trap
same,Mean number of WCR adults per sticky trap (±standard deviation) after 24 hours,[1]; August 5 first year,1.5 ± 6.6^ab per sticky trap
same,Mean number of SCR adults per sticky trap (±standard deviation) after 24 hours,[2]; August 4 second year,59.5 ± 49.0^c per sticky trap
same,Mean number of SCR per sticky trap after 24 hours,[2],47.5 ± 15.4^cd per sticky trap
same,Mean number of SCR adults per sticky trap (±standard deviation) after 24 hours,[2]; August 5 first year,156.0 ± 37.2^c per sticky trap
same,Mean number of NCR per sticky trap after 24 hours,[3],0.3 ± 0.5^a per sticky trap
"O=C(O)C=Cc1ccccc1 [XX, cinnamic acid]",Mean number of WCR per sticky trap after 24 hours,[1],12.7 ± 4.9^a per sticky trap
same,Mean number of SCR per sticky trap after 24 hours,[2],1.7 ± 0.5^a per sticky trap
same,Mean number of NCR per sticky trap after 24 hours,[3],1.7 ± 1.0^a per sticky trap
O=CCc1ccccc1 [Phenylacetaldehyde],relative percent activity (SCR) as compared with the highest mean value for the test date,[4]; [6],8%
same,Mean number of SCR per trap (±standard deviation),[4]; [6],3.0 ± 1.2 per trap
same,relative percent activity (SCR) as compared with the highest mean value for the test date,[4]; [7],12%
same,Mean number of SCR per trap (±standard deviation),[4]; [7],5.3 ± 3.2 per trap
same,Mean number of SCR per trap (±standard deviation),[4]; [8],2.5 ± 1.9 per trap
same,relative percent activity of the mean SCR trap catch as compared with the highest mean value in the column,[4]; [9],12%
same,relative percent activity (WCR) as compared with the highest mean value for the test date,[5]; [6],35%
same,Mean number of WCR per trap (±standard deviation),[5]; [6],17.8 ± 7.9 per trap
same,relative percent activity (WCR) as compared with the highest mean value for the test date,[5]; [7],42%
same,Mean number of WCR per trap (±standard deviation),[5]; [7],13.3 ± 8.1 per trap
same,Mean number of WCR per trap (±standard deviation),[5]; [8],1.8 ± 1.3 per trap
same,relative percent activity of the mean WCR trap catch as compared with the highest mean value in the column,[5]; [9],26%
same,Attractant Rating NCR (by limit of response),NCR,0 (200)
same,Attractant Rating SCR (by limit of response),SCR,+2 (10-30)
same,Attractant Rating WCR (by limit of response),WCR,0 (200)
"N#CCCc1ccccc1 [XXIII, phenyl propionitrile]",Mean number of WCR per sticky trap after 24 hours,[1],12.0 ± 4.2^a per sticky trap
same,Mean number of SCR per sticky trap after 24 hours,[2],23.7 ± 9.7^b per sticky trap
same,Mean number of NCR per sticky trap after 24 hours,[3],0.3 ± 0.5^a per sticky trap
"CC(=O)OCC=Cc1ccccc1 [XIX, cinnamyl acetate]",Mean number of WCR per sticky trap after 24 hours,[1],24.0 ± 1.07^b per sticky trap
same,Mean number of SCR per sticky trap after 24 hours,[2],6.0 ± 1.5^a per sticky trap
same,Mean number of NCR per sticky trap after 24 hours,[3],5.7 ± 2.9^b per sticky trap
